Data taken from patent publication US8383806B2, “Method of reversing carboplatin resistance by inhibition of HGFIN” (University of Medicine and Dentistry of New Jersey, priority 2000, dated 2013).

Columns and labels:
[1] = system: HGFIN mRNA in HL-60; test: Northern analysis of HGFIN mRNA in differentiated HL-60; assay type: cell-based; details: HL-60 differentiated to monocytes (TPA) or granulocytes (DMSO)
Description: (§1) Cell Differentiation. Cell differentiation was performed with a myelomonocytic cell line, HL-60, or bone marrow mononuclear cells (BMNC). HL-60 cells were chemically differentiated with TPA and DMSO for monocytes and granulocytes respectively (Miura, et al. (2000) supra; Hegde, et al. (1999) Blood 94:1578-1589). BMNC were isolated from bone marrow aspirate of healthy donors using FICOLL HYPAQUE density gradient.
Northern Analysis. Northern analysis for steady state HGFIN mRNA was performed as described (Rameshwar, et al. (1997) J. Immunol. 158:3417-3424). Total RNA was extracted from the experimental cells and 10 μg from each was separated in 1.2% agarose. RNA was transferred to nylon membranes (S & S NYTRAN, Keene, N.H.) and then hybridized with [α-^32P]-dATP-labeled cDNA probes specific for HGFIN or Id2. Membranes were stripped and then reprobed with cDNA for 18S rRNA. Probes were randomly labeled with [α-^32P]-dATP, 3000 Ci/mM, (Dupont/NEN, Boston, Mass.) using the PRIME-IT II random primer kit (Stratagene). […]
HGFIN mRNA was studied in differentiated and undifferentiated HL-60 cells to determine if the expression of this gene was limited to normal bone marrow progenitors. […] Similar to normal progenitors, HGFIN mRNA was detected in differentiated HL-60. […]

[2] = system: Oct4 breast cancer cells; test: Carboplatin treatment of tumors from Oct4 breast cancer cells in mice; assay type: in vivo, athymic BALB/c mice
Description: As discussed above, female athymic BALB/c mice (4 weeks) were obtained from Harlan Laboratories (Somerville, N.J.) and housed in a laminar flow hood at an AAALAC-accredited facility. The use of mice was approved by the Institutional Animal Care and Use Committee, New Jersey Medical School (Newark, N.J.).
Mice were inoculated with Oct4 cells where HGFIN expression was knocked down with siRNA. The cells were injected in a total volume of 0.2 mL subcutaneously in the dorsal flanks. Tumors were monitored daily and measured in two dimensions with a caliper and volume was calculated using the formula V=πr^2h, where r=radius and h=height. Animal were injected with carboplatin (50 mg/kg) on day 0 and day 3 of the test period. Tumors were palpated and tumor volume was measured every other day for two weeks (i.e., days 0, 2, 4, 6, 8, 10, 12 and 14).

[3] = system: HGFIN mRNA in bone marrow stroma; test: Northern analysis of HGFIN mRNA in stimulated bone marrow stroma; assay type: cell-based, human; details: bone marrow stroma vs unstimulated
Description: (§2) Cell Stimulation. Peripheral blood mononuclear cells (PBMC) were resuspended in RPMI 1640 containing 2% FCS at 10^6/ml. Cell suspension, 10 ml, was stimulated with 1 μg/ml of LPS. bone marrow stroma was stimulated in sera-free α-MEM (Sigma) with the following: 10 μg/ml SCF, 5 ng/ml IL-11, 5 U/ml […], 5 ng/ml […], 25 ng/ml NGF and […]. Dose-response curves with slot blots for HGFIN mRNA determined the optimal concentration of each stimulus. During stromal cell stimulation, culture media were supplemented with insulin-transferring-selenium-A (Life Technologies, Grand Island, N.Y.). In both types of cells, controls included parallel cultures in similar media. At 8 hours and 16 hours, total RNA was extracted from each experimental point and control and then analyzed by northern analyses for HGFIN mRNA.
(§3) Northern Analysis. Northern analysis for steady state HGFIN mRNA was performed as described (Rameshwar, et al. (1997) J. Immunol. 158:3417-3424). Total RNA was extracted from the experimental cells and 10 μg from each was separated in 1.2% agarose. RNA was transferred to nylon membranes (S & S NYTRAN, Keene, N.H.) and then hybridized with [α-^32P]-dATP-labeled cDNA probes specific for HGFIN or Id2. Membranes were stripped and then reprobed with cDNA for 18S rRNA. Probes were randomly labeled with [α-^32P]-dATP, 3000 Ci/mM, (Dupont/NEN, Boston, Mass.) using the PRIME-IT II random primer kit (Stratagene). The membrane was placed in a PHOSPHOIMAGER cassette (Molecular Dynamics, Sunnyvale, Calif.) and then scanned at different times beginning at 6 hours to 24 hours on a PHOSPHOIMAGER (Molecular Dynamics). Negative results were not attributed to the lack of total RNA on the membrane since each was hybridized with a cDNA probe for 18S rRNA.
The mesenchymal/stromal cells of the bone marrow produce most of the necessary soluble regulators that modulate bone marrow organ functions (Muller-Sieburg & Deryugina (1995) supra). Since HGFIN expression was altered in activated PBMC, the next set of studies examined the role of HGFIN in activated bone marrow stroma. The following stimulators were used: cytokines, SCF, IL-11, IL-1(α, β) and IL-6 and a neurotrophic factor, NGF. […] Densitometric scans were normalized with 18S rRNA and the fold (mean±SD) increase over unstimulated stroma was determined. […] However, together, the levels of HGFIN mRNA in the cytokine-stimulated cultures were much less than in stroma stimulated with NGF.

[4] = system: HGFIN mRNA in PBMC; test: Northern analysis of HGFIN mRNA in stimulated PBMC; assay type: cell-based, human; details: 1 μg/ml LPS
Description: as §2
Northern Analysis. Northern analysis for steady state HGFIN mRNA was performed as described (Rameshwar, et al. (1997) J. Immunol. 158:3417-3424). Total RNA was extracted from the experimental cells and 10 μg from each was separated in 1.2% agarose. […]
As differentiated immune cells express HGFIN, studies were performed to determining if HGFIN was also expressed when these differentiated cells were activated. […] Consistent with HGFIN expression in PBMC, HGFIN mRNA was detected in the unstimulated PBMC.

[5] = system: HGFIN mRNA in BMNC; test: Northern analysis of HGFIN mRNA in BMNC cultured with M-CSF or G-CSF; assay type: cell-based, human
Description: as §1
(§4) Further, BMNC cells were differentiated with M-CSF or G-CSF (500 U/ml for each) to monocytes and granulocytes, respectively. Undifferentiated cells were cultured in parallel with only media. Culture media were replaced at two-day intervals until cytochemical staining determined that >90% of the cells were differentiated. At this time, cell differentiation was terminated and the cells analyzed by northern analyses for Id2 and HGFIN mRNA, and by immunoblot for Id2 protein. For HL-60 cultures, cytochemical staining was performed after three days with 100-200 cells. Beginning at day 5, cells from cultures with BMNC were stained and daily thereafter. Neutrophil and monocyte staining were performed with kits specific for 2-naphthyl-acetate esterase and naphthol AS-D chloroacetate esterase, respectively.
as §3
Since the HGFIN cDNA was isolated from bone marrow cell subsets, bone marrow and PB mononuclear cells were screened using northern analyses to study the expression of HGFIN. […] After the cells were >90% differentiated to monocytes and neutrophils, cells were analyzed for the expression of HGFIN mRNA by northern analyses.
To verify that the expression of HGFIN was not due to activation by the two cytokines, northern analyses were performed with BMNC cultured with M-CSF or G-CSF and then analyzed for HGFIN mRNA before the cells were differentiated.

[6] = system: Id2 in BMNC; test: Id2 protein in differentiated BMNC; assay type: cell-based, human
Description: as §4, with “Neutrophil and monocyte staining were performed with kits specific for 2-naphthyl-acetate esterase and naphthol AS-D chloroacetate esterase, respectively.” left out
Western Blots. […] Extracts were centrifuged at 10,000 g for 10 minutes and then determined for total protein concentration using the BIO-RAD Protein Assay kit (BIO-RAD Laboratories, Hercules, Calif.). Extracts (15 Vig) were analyzed by western blot for Id2 protein as described (Rameshwar, et al. (2000) J. Immunol. 165:2271-2277). […] Alk Phos activity was detected with BCIP/NBT substrate System (Kirkeguard & Perry Laboratories, Gaithersburg, Md.). […]
Northern blots were performed in four experiments, each with a different donor. […] However in undifferentiated BMNC (cultured in media alone), Id2 mRNA was detected in each of the four bone marrow donors. […]

[7] = BMNC >90% differentiated to monocytes or neutrophils
[8] = BMNC cultured with cytokine, before the cells were differentiated

## 12-0-tetradecanoylphorbol diester [TPA]
[1]
  HGFIN mRNA: detected

## C[S+](C)[O-] [DMSO, dimethylsulfoxide]
[1]
  HGFIN mRNA: detected

## N.N.O=C([O-])C1(C(=O)[O-])CCC1.[Pt+2] [carboplatin]
[2]; 50 mg/kg, two weeks after second injection
  tumor cell volume vs before carboplatin treatment: statistically significant decreases
[2]; HGFIN knocked down with siRNA, 50 mg/kg day 0 and day 3, two weeks after second injection
  sensitivity of tumors to carboplatin: more sensitive

## IL-6: cytokine
[3]
  HGFIN mRNA induction: induced

## NGF: nerve growth factor, a neurotrophic factor
[3]
  HGFIN mRNA induction: induced

## SCF: Stem cell factor, cytokine
[3]
  HGFIN mRNA induction: induced

## lipopolysaccharide [LPS]
[4]; 8 hours
  steady state HGFIN mRNA: no difference
[4]; 16 hours
  steady state HGFIN mRNA: down-regulated

B1: G-CSF: granulocyte colony-stimulation factor (protein, UniProt P09919 31-207, looked up)
Granulocyte …: TPLGPASSLPQSFLLKCLEQVRKIQGDGAALQEKLVSECATYKLCHPEELVLLGHSLGIPWAPLSSCPSQALQLAGCLSQLHSGLFLYQGLLQALEGISPELGPTLDTLQLDVADFATTIWQQMEELGMAPALQPTQGAMPAFASAFQRRAGGVLVASHLQSFLEVSYRVLRHLAQP
[5]; [7]
  HGFIN mRNA: detectable
[5]; [8]
  HGFIN mRNA: no detectable HGFIN mRNA
[6]
  band for Id2 protein: very light to undetectable

B2: IL-11: cytokine (protein, UniProt P20809 22-199, looked up)
Interleukin-11: PGPPPGPPRVSPDPRAELDSTVLLTRSLLADTRQLAAQLRDKFPADGDHNLDSLPTLAMSAGALGALQLPGVLTRLRADLLSYLRHVQWLRRAGGSSLKTLEPELGTLQARLDRLLRRLQLLMSRLALPQPPPDPPAPPLAPPSSAWGGIRAAHAILGGLHLTLDWAVRGLLLLKTRL
[3]
  HGFIN mRNA induction: induced

B3: M-CSF: macrophage colony-stimulation factor (protein, UniProt P09603 33-554, looked up)
Macrophage colony-stimulating …: EEVSEYCSHMIGSGHLQSLQRLIDSQMETSCQITFEFVDQEQLKDPVCYLKKAFLLVQDIMEDTMRFRDNTPNAIAIVQLQELSLRLKSCFTKDYEEHDKACVRTFYETPLQLLEKVKNVFNETKNLLDKDWNIFSKNCNNSFAECSSQDVVTKPDCNCLYPKAIPSSDPASVSPHQPLAPSMAPVAGLTWEDSEGTEGSSLLPGEQPLHTVDPGSAKQRPPRSTCQSFEPPETPVVKDSTIGGSPQPRPSVGAFNPGMEDILDSAMGTNWVPEEASGEASEIPVPQGTELSPSRPGGGSMQTEPARPSNFLSASSPLPASAKGQQPADVTGTALPRVGPVRPTGQDWNHTPQKTDHPSALLRDPPEPGSPRISSLRPQGLSNPSTLSAQPQLSRSHSSGSVLPLGELEGRRSTRDRRSPAEPEGGPASEGAARPLPRFNSVPLTDTGHERQSEGSFSPQLQESVFHLLVPSVILVLLAVGGLLFYRWRRRSHQEPQRADSPLEQPEGSPLTQDDRQVELPV
[5]; [7]
  HGFIN mRNA: detectable
[5]; [8]
  HGFIN mRNA: no detectable HGFIN mRNA
[6]
  band for Id2 protein: very light to undetectable
